Reference: BindingDB's records for doi:10.1096/fj.02-0026fje (Chul, 2002)

Tests used:
[1] = biological target: T1, 17-beta-hydroxysteroid dehydrogenase type 1 (Homo sapiens, UniProt P14061); experiment: Enzymatic Assay (Inhibition of Type 1 17beta-HSD); details: pH 7.4; 37 °C
T1 sequence (P14061 whole entry): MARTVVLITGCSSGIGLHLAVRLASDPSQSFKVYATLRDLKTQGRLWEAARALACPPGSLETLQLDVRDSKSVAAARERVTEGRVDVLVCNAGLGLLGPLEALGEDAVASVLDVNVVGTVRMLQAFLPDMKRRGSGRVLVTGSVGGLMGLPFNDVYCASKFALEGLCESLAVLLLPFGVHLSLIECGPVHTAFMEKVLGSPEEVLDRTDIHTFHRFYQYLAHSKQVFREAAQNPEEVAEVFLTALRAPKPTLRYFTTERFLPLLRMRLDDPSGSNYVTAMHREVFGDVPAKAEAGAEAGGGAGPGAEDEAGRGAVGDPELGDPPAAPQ
Procedure: The enzymatic reaction was performed in the reaction buffer containing substrate, [14C]-estrone, and the test inhibitors. After the reaction, radiolabeled steroids were extracted from the reaction mixture, and solvent was evaporated to dryness. Steroids were dissolved and separated on TLC plates. Radioactivity signals were detected and quantified using a PhosphoImager (Sunny Vale, CA). The percentage of transformation of [14C]-E1 into [14C]-E2 was calculated. The IC50 values were calculated using an unweighted iterative least-squares method for four-parameter logistic curve fitting (DE50 program, CHUL Research Center, Quebec).

[2] = biological target: T1, 17-beta-hydroxysteroid dehydrogenase type 1; experiment: Enzyme Inhibition on the Conversion of E2 to E1 by 17beta-HSD1; details: pH 7.5; 37 °C
Source text: For steady-state kinetic study of hybrid inhibitors, a Fluorolog 3 instrument was used to monitor the fluorescent signal of NADPH formed during estradiol oxidation, through which the substrate conversion is monitored. The excitation wavelength was 340 nm, and the emission wavelength was 460 nm. […] Ki was further determined by a plot of Km vs. the inhibitor concentration.

Compound | IC50 [1] | Ki [2]
C[C@]12CC[C@@H]3c4ccc(O)cc4CC[C@H]3[C@@H]1CC(CCCCCCCCC(=O)OCC1OC(n3cnc4c(N)ncnc43)C(O)C1O)[C@@H]2O (stereo not given in full) [EM1745] | 52 nM | 0.003 µM
C[C@]12CC[C@@H]3c4ccc(O)cc4CC[C@H]3[C@@H]1CC(CCCCCCCC(=O)OCC1OC(n3cnc4c(N)ncnc43)C(O)C1O)[C@@H]2O (stereo partly drawn) [[5-(6-amino-9H-purin-9-yl)-3,4-dihydroxyoxolan-2-yl]methyl 8-[(1S,10R,11S,14S,15S)-5,14-dihydroxy-15-methyltetracyclo[8.7.0.0^{2,7}.0^{11,15}]heptadeca-2,4,6-trien-13-yl]octanoate] | 93 nM | 
C[C@]12CC[C@@H]3c4ccc(O)cc4CC[C@H]3[C@@H]1CC(CCCCCCCCCC(=O)OCC1OC(n3cnc4c(N)ncnc43)C(O)C1O)[C@@H]2O (stereo partly drawn) [[5-(6-amino-9H-purin-9-yl)-3,4-dihydroxyoxolan-2-yl]methyl 10-[(1S,10R,11S,14S,15S)-5,14-dihydroxy-15-methyltetracyclo[8.7.0.0^{2,7}.0^{11,15}]heptadeca-2,4,6-trien-13-yl]decanoate] | 140 nM | 
CCCCCCCCC(=O)OCC1OC(n2cnc3c(N)ncnc32)C(O)C1O (stereo not given) [[5-(6-amino-9H-purin-9-yl)-3,4-dihydroxyoxolan-2-yl]methyl nonanoate] |  | 250 µM
